# Experimental data published in US20110190365A1, “Insecticidal 4-phenyl-1H-pyrazoles” (Bayer Crop Science AG, priority 2008, published 2011).
# Test: log P by HPLC on a reversed-phase column (C18), EEC Directive 79/831 Annex V.A8
# Type: physicochemical
# Details: HCOOH
# Experimental: The stated log P values were determined in accordance with EEC Directive 79/831 Annex V.A8 by HPLC (High Performance Liquid Chromatography) using a reversed-phase column (C18).
row,Structure (SMILES),log P (HCOOH)
1,Cc1cc(-n2nc(C)c(-c3c(F)cccc3Cl)c2N)ccc1C(=O)NCC(F)(F)C(F)F [I-A-Q2-334],I-A-Q2-334: log P (HCOOH): 2.59
2,Cc1cc(-n2nc(C(F)(F)F)c(-c3cc(Cl)cc(Cl)c3)c2N)ccc1C(=O)NC(C)c1ccc(Cl)cc1 (stereo not drawn) [I-A-Q2-213],I-A-Q2-213: log P (HCOOH): 4.89
3,Cc1cc(-n2nc(C(F)(F)c3cccc(C(F)(F)F)c3)c(-c3cc(Cl)cc(C(F)(F)F)c3)c2N)ccc1C(=O)NCC(F)(F)C(F)F [I-A-Q2-286],I-A-Q2-286: log P (HCOOH): 4.89
4,Cc1cc(-n2nc(C(F)(F)F)c(-c3cc(F)c(F)c(F)c3)c2N)ccc1C(=O)NCC(F)(F)C(F)F [I-A-Q2-316],I-A-Q2-316: log P (HCOOH): 3.65
5,Cc1cc(-n2nc(C(F)(F)F)c(-c3cc(Cl)cc(Cl)c3)c2N)ccc1C(=O)NCc1ccccc1F [I-A-Q2-112],I-A-Q2-112: log P (HCOOH): 4.34
6,Cc1cc(-n2nc(C(F)(F)F)c(-c3ccc(F)c(Cl)c3)c2N)ccc1C(=O)NCc1ccccn1 [I-A-Q2-352],I-A-Q2-352: log P (HCOOH): 2.76
7,CCOC(=O)N1CCC(NC(=O)c2ccc(-n3nc(C(F)(F)F)c(-c4cc(Cl)cc(Cl)c4)c3N)cc2C)CC1 [I-A-Q2-204],I-A-Q2-204: log P (HCOOH): 4.22
8,Cc1cc(-n2nc(C(F)(F)F)c(-c3cc(C(F)(F)F)cc(C(F)(F)F)c3)c2N)ccc1C(=O)NCc1ccccn1 [I-A-Q2-360],I-A-Q2-360: log P (HCOOH): 3.47
9,Cc1cc(-n2nc(C(F)(F)F)c(-c3cc(Cl)cc(Cl)c3)c2N)ccc1C(=O)NCC(=O)N1CCOCC1 [I-A-Q2-031],I-A-Q2-031: log P (HCOOH): 3.33
10,CNC(=O)c1ccc(-n2nc(C(C)C)c(-c3ccc(Cl)cc3)c2N)cc1 [I-A-Q2-074],I-A-Q2-074: log P (HCOOH): 2.76
11,Cc1cc(-n2nc(C(F)(F)F)c(-c3ccc(I)cc3)c2N)ccc1C(=O)NCC(F)(F)C(F)F [I-A-Q2-313],I-A-Q2-313: log P (HCOOH): 3.85
12,Cc1cc(-n2nc(C(F)(F)F)c(-c3ccc(Cl)cc3Cl)c2N)ccc1C(=O)NCC(F)(F)C(F)F [I-A-Q2-305],I-A-Q2-305: log P (HCOOH): 3.75
13,Cc1cc(C)cc(-c2c(C(F)(F)F)nn(-c3ccc(C(=O)NC(C)C(F)(F)F)cc3)c2N)c1 (stereo not drawn) [I-A-Q2-178],I-A-Q2-178: log P (HCOOH): 3.89
14,CC(NC(=O)c1ccc(-n2nc(C(F)(F)F)c(-c3cc(Cl)cc(Cl)c3)c2N)cc1)c1ccccn1 (stereo not drawn) [I-A-Q2-147],I-A-Q2-147: log P (HCOOH): 3.47
15,Cc1cc(-n2nc(C)c(-c3ccccc3Cl)c2N)ccc1C(=O)NCC(F)(F)C(F)F [I-A-Q2-333],I-A-Q2-333: log P (HCOOH): 2.59
16,Cc1cc(-n2nc(C(F)(F)F)c(-c3cc(Cl)cc(Cl)c3)c2N)ccc1C(=O)NC1CCOCC1 [I-A-Q2-250],I-A-Q2-250: log P (HCOOH): 3.68
17,Nc1c(-c2cccc(F)c2)c(C(F)(F)F)nn1-c1ccc(C(=O)NC2CC2)cc1 [I-A-Q2-184],I-A-Q2-184: log P (HCOOH): 2.76
18,Cc1cc(-n2nc(C(F)(F)F)c(-c3cc(Cl)cc(Cl)c3)c2N)ccc1C(=O)NCc1cccc(Cl)c1 [I-A-Q2-215],I-A-Q2-215: log P (HCOOH): 4.76
19,Cc1cc(-n2nc(C)c(-c3ccc(F)cc3F)c2N)ccc1C(=O)NCc1ccccn1 [I-A-Q2-370],I-A-Q2-370: log P (HCOOH): 1.64
20,Cc1cc(-n2nc(C(F)(F)F)c(-c3cc(Cl)cc(Cl)c3)c2N)ccc1C(=O)NC(C)c1nccc2ccccc12 (stereo not drawn) [I-A-Q2-256],I-A-Q2-256: log P (HCOOH): 4.64
21,Cc1cc(-n2nc(C(F)(F)F)c(-c3cc(Cl)cc(Cl)c3)c2N)ccc1C(=O)NCC1CCCCC1 [I-A-Q2-263],I-A-Q2-263: log P (HCOOH): 5.08

row,Structure (SMILES),log P (HCOOH)
1,Cc1cc(-n2nc(C(F)(F)F)c(-c3cc(Cl)cc(Cl)c3)c2N)ccc1C(=O)NC(CC(C)C)C(F)(F)F (stereo not drawn) [I-A-Q2-198],I-A-Q2-198: log P (HCOOH): 5.40
2,Cc1cc(-n2nc(C(F)(F)F)c(-c3cccc(Br)c3)c2N)ccc1C(=O)NC(C)c1ccccn1 (stereo not drawn) [I-A-Q2-418],I-A-Q2-418: log P (HCOOH): 3.22
3,Cc1cc(-n2nc(C(F)(F)c3ccc(C(F)(F)F)cc3)c(-c3cc(Cl)cc(C(F)(F)F)c3)c2N)ccc1C(=O)NCC(F)(F)C(F)F [I-A-Q2-289],I-A-Q2-289: log P (HCOOH): 4.95
4,CC(NC(=O)c1ccc(-n2nc(C(F)(F)F)c(-c3ccccc3Cl)c2N)cc1)C(F)(F)F (stereo not drawn) [I-A-Q2-079],I-A-Q2-079: log P (HCOOH): 3.37
5,Cc1cc(-n2nc(C(F)(F)F)c(-c3cc(Cl)cc(Cl)c3)c2N)ccc1C(=O)N(Cc1ccccn1)Cc1ccccn1 [I-A-Q2-199],I-A-Q2-199: log P (HCOOH): 3.48
6,Cc1cc(-n2nc(C(F)(F)Oc3ccccc3Cl)c(-c3cc(Cl)cc(C(F)(F)F)c3)c2N)ccc1C(=O)NCC(F)(F)C(F)F [I-A-Q2-298],I-A-Q2-298: log P (HCOOH): 4.64
7,CC(NC(=O)c1ccc(-n2nc(C(F)(F)F)c(-c3ccc(Cl)c(F)c3)c2N)cc1)C(F)(F)F (stereo not drawn) [I-A-Q2-166],I-A-Q2-166: log P (HCOOH): 3.84
8,Cc1cc(-n2nc(C(F)(F)C(F)(F)F)c(-c3cc(C(F)(F)F)cc(C(F)(F)F)c3)c2N)ccc1C(=O)NCc1ccccn1 [I-A-Q2-383],I-A-Q2-383: log P (HCOOH): 3.94
9,COC(C)c1nn(-c2ccc(C(=O)NCC(F)(F)C(F)F)c(C)c2)c(N)c1-c1cc(Cl)cc(C(F)(F)F)c1 (stereo not drawn) [I-A-Q2-291],I-A-Q2-291: log P (HCOOH): 3.84
10,Cc1cc(-n2nc(C(F)(F)F)c(-c3cc(Cl)cc(Cl)c3)c2N)ccc1C(=O)NCC(F)(F)F [I-A-Q2-014],I-A-Q2-014: log P (HCOOH): 4.34
11,CC(C)NC(=O)c1ccc(-n2nc(C(F)(F)F)c(-c3ccc(Cl)c(Cl)c3)c2N)cc1 [I-A-Q2-154],I-A-Q2-154: log P (HCOOH): 3.75
12,Nc1c(Br)c(C(F)(F)F)nn1-c1ccc(C(=O)O)cc1 [XI-A-038],XI-A-038: log P (HCOOH): 2.38
13,CCNC(=O)c1ccc(-n2nc(C(F)(F)F)c(-c3cc(Cl)cc(Cl)c3)c2N)cc1 [I-A-Q2-142],I-A-Q2-142: log P (HCOOH): 3.77
14,Cc1cc(-n2nc(C(F)(F)F)c(-c3cccc(F)c3)c2N)ccc1C(=O)NCC(F)(F)C(F)F [I-A-Q2-311],I-A-Q2-311: log P (HCOOH): 3.27
15,Cc1cc(-n2nc(C(F)(F)F)c(-c3cc(Cl)cc(Cl)c3)c2N)ccc1C(=O)NC1CC1 [I-A-Q2-228],I-A-Q2-228: log P (HCOOH): 3.78
16,Cc1cc(-n2nc(C(F)(F)F)c(-c3cccc(Br)c3)c2N)ccc1C(=O)NCC1CC1 [I-A-Q2-416],I-A-Q2-416: log P (HCOOH): 3.81
17,Cc1nn(-c2ccc(C(=O)NC(C)C(F)(F)F)cc2)c(Br)c1-c1cccc(Cl)c1 (stereo not drawn) [I-A-Q2-098],I-A-Q2-098: log P (HCOOH): 4.36
18,CSc1c(-c2cc(Cl)cc(Cl)c2)c(C(F)(F)F)nn1-c1ccc(C(=O)NCc2ncccn2)c(C)c1 [I-A-Q2-276],I-A-Q2-276: log P (HCOOH): 4.50
19,Cc1cc(-n2nc(C(F)(F)F)c(-c3cc(Cl)cc(Cl)c3)c2I)ccc1C(=O)NC(C)C(F)(F)F (stereo not drawn) [I-A-Q2-026],I-A-Q2-026: log P (HCOOH): 5.44
20,COc1cccc(C(F)(F)c2nn(-c3ccc(C(=O)NCC(F)(F)C(F)F)c(C)c3)c(N)c2-c2cc(Cl)cc(C(F)(F)F)c2)c1 [I-A-Q2-288],I-A-Q2-288: log P (HCOOH): 4.40
21,Nc1c(-c2cc(Cl)cc(Cl)c2)c(C(F)(F)F)nn1-c1ccc(C(=O)NCC(F)(F)F)cc1 [I-A-Q2-138],I-A-Q2-138: log P (HCOOH): 4.21

# Same assay, conditions: HCOOH; Table 4, compounds of formula I-A-Q4
row,Structure (SMILES),log P (HCOOH)
1,Cc1nn(-c2ccc(Cl)cn2)c(N)c1-c1c(F)cccc1F [I-A-Q4-036],I-A-Q4-036: log P (HCOOH): 3.58
2,Nc1c(-c2cc(Cl)cc(Cl)c2)c(C(F)(F)F)nn1-c1ccc(F)c(C(F)(F)F)c1 [I-A-Q4-105],I-A-Q4-105: log P (HCOOH): 5.25
3,COC(=O)c1ccc(-n2nc(C(F)(F)F)c(-c3cc(Cl)cc(Cl)c3)c2N)cc1N(C)C [I-A-Q4-119],I-A-Q4-119: log P (HCOOH): 4.71
4,Nc1c(-c2ccc(Cl)c(F)c2)c(C(F)(F)F)nn1-c1ccc(Cl)cn1 [I-A-Q4-048],I-A-Q4-048: log P (HCOOH): 5.02
5,Nc1c(-c2c(F)cc(F)cc2F)c(C(F)(F)F)nn1-c1ccc(Cl)cn1 [I-A-Q4-046],I-A-Q4-046: log P (HCOOH): 4.46
6,Nc1c(-c2ccc(F)cc2F)c(C(F)F)nn1-c1ccc(Cl)cn1 [I-A-Q4-056],I-A-Q4-056: log P (HCOOH): 3.84
7,Nc1c(-c2cc(Cl)cc(Cl)c2)c(C(F)(F)F)nn1-c1ccc(S(=O)(=O)NC2CC2)c(Br)c1 [I-A-Q4-111],I-A-Q4-111: log P (HCOOH): 4.77
8,Cc1ccccc1-c1c(C(F)(F)F)nn(-c2ccc(C(=O)O)cc2)c1N [I-A-Q4-101],I-A-Q4-101: log P (HCOOH): 2.94

# Same assay, conditions: HCOOH; compounds of the formula (IX), Table 11
row,Structure (SMILES),log P (HCOOH)
1,CC(=O)Nc1[nH]nc(C(F)(F)F)c1-c1cc(Cl)cc(Cl)c1 [IX-203],IX-203: log P (HCOOH): 2.98

# Same assay, conditions: HPLC, reversed-phase C18, mobile phase with formic acid
row,Structure (SMILES),log P (HCOOH)
1,N#Cc1cc(-n2nc(C(F)(F)F)c(-c3cc(F)cc(Cl)c3)c2N)ccc1-n1cncn1 [I-A-Q1-037],I-A-Q1-037: log P (HCOOH): 3.33
2,N#Cc1cc(-n2nc(C(F)(F)Oc3cccc(Cl)c3)c(-c3cc(Cl)cc(C(F)(F)F)c3)c2N)ccc1-n1cncn1 [I-A-Q1-072],I-A-Q1-072: log P (HCOOH): 4.82
3,N#Cc1cc(-n2nc(C(F)(F)F)c(-c3cc(Cl)cc(Cl)c3)c2N)ccc1-n1ccnc1 [I-A-Q1-076],I-A-Q1-076: log P (HCOOH): 2.98
4,Cc1nn(-c2ccc(-n3cncn3)c(C#N)c2)c(N)c1-c1ccc(Cl)cc1 [I-A-Q1-029],I-A-Q1-029: log P (HCOOH): 2.65
5,Cc1nn(-c2ccc(-n3cncn3)c(C#N)c2)c(N)c1-c1cc(Cl)ccc1Cl [I-A-Q1-028],I-A-Q1-028: log P (HCOOH): 2.65
6,N#Cc1cc(-n2nc(C(F)(F)F)c(-c3cc(Cl)cc(Cl)c3)c2N)ccc1-n1nc(C(F)F)cc1C(F)F [I-A-Q1-080],I-A-Q1-080: log P (HCOOH): 4.64
7,Cc1nn(-c2ccc(-n3cncn3)c(C#N)c2)c(N)c1-c1ccccc1 [I-A-Q1-066],I-A-Q1-066: log P (HCOOH): 2.14
8,Cc1nn(-c2ccc(-n3cncn3)c(C#N)c2)c(N)c1-c1c(Cl)cccc1Cl [I-A-Q1-055],I-A-Q1-055: log P (HCOOH): 2.47
9,N#Cc1cc(-n2nc(C(F)(F)F)c(-c3ccc(Cl)c(Cl)c3)c2N)ccc1-n1cncn1 [I-A-Q1-031],I-A-Q1-031: log P (HCOOH): 3.60
